# Experiments:
# P-TEFb (Cdk9/Cyclin T1) = target: T1, P-TEFb (Cdk9/Cyclin T1) (Homo sapiens, UniProt P50750); test: P-TEFb kinase assay with p53 as substrate; type: biochemical; settings: different concentrations, 30° C., 30 min
# T1 construct: gift from Dr. Nekhai (Howard University)
# Procedure: For P-TEFb kinase assays with p53 as a substrate, purified p53 protein (Protein One) was used. Twenty-five nanograms of p53 protein along with [γ^32P]ATP was used in reactions either in the presence or absence of P-TEFb, with or without the addition of ARC. The reaction was carried out at 30° C. for 30 min. The samples were resolved on an SDS-PAGE and transferred on to a PVDF membrane and exposed to X-ray film to detect phosphorylation of p53.
# (§1) In order to evaluate this activity, an in vitro kinase assay was performed with purified p53 protein and P-TEFb in the presence of different concentrations of ARC.
# p53 = test: Gel shift assay with purified p53 phosphorylated by P-TEFb; type: binding; settings: purified p53, different concentrations
# Procedure: Either purified p53 protein or nuclear extracts were used in the gel shift assays. For preparation of nuclear extracts, cells treated either with DMSO or different agents (doxorubicin, ARC and actinomycin D) were harvested 24 hours later and lysed in hypotonic buffer (10 mM HEPES pH 7.9, 1.5 mM MgCl2, 10 mM KCl, 0.2 mM PMSF, 0.5 mM DTT, 1 mM Na3VO4, 1 mM NaF, 1 mM Aprotinin and 1 mM Leupeptin), nuclei pelleted and treated with high-salt buffer (20 mM HEPES pH 7.9, 20% (v/v) glycerol, 1.5 mM MgCl2, 0.5 M KCl, 0.2 mM EDTA, 0.2 mM PMSF, 0.5 mM DTT, 1 mM Na3VO4, 1 mM NaF, 1 mM Aprotinin and 1 mM Leupeptin). Nuclear extracts (10 μg) or purified p53 protein (100 ng) were incubated with 0.5 ng of p53 consensus double-stranded oligos (5′-TACAGAACATGTCTAAGCATGCTGGGGACT-3′; Santa Cruz Biotechnology) that were labeled with [γ^32P]ATP. As a control, anti-p53 antibody (PAb421, EMD Biosciences) was used to supershift the p53/DNA complex. The reaction mixtures were resolved on a 4% acrylamide DNA-retardation gel, dried and exposed to X-ray film in the presence of intensifying screen.
# as §1
# T1 sequence (P50750 whole entry, species assumed): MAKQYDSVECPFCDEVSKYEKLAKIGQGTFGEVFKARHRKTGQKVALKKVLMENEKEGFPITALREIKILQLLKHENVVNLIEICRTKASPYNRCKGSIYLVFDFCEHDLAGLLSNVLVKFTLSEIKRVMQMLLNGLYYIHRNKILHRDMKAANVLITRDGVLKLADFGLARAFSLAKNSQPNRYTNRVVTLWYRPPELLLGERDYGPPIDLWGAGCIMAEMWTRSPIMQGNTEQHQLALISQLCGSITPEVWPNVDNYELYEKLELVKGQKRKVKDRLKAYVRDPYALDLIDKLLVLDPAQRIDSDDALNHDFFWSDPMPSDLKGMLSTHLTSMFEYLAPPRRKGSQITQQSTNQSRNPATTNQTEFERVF
# T1 sequence (O60563 whole entry partner, species assumed): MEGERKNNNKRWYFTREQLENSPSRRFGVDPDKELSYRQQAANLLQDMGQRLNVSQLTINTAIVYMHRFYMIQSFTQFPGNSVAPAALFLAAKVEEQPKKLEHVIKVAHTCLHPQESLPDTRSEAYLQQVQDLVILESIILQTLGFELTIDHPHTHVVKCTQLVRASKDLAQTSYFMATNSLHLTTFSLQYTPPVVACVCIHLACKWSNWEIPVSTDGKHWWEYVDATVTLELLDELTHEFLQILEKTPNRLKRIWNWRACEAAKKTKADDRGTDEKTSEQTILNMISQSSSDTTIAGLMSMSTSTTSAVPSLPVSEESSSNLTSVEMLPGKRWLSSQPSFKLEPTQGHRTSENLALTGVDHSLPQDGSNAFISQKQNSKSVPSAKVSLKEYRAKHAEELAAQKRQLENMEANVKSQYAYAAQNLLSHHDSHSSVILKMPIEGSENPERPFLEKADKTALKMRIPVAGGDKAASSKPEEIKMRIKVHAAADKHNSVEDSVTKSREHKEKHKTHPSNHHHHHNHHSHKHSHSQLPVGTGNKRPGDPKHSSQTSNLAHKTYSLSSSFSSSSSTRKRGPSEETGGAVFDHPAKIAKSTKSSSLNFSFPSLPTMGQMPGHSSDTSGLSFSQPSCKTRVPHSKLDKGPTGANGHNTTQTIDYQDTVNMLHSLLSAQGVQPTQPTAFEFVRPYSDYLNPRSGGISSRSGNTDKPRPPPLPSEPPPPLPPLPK
smiles,measurement,setting,value
"NNc1c(C(N)=O)c2c(N)ncnc2n1[C@@H]1O[C@H](CO)[C@@H](O)[C@H]1O [ARC, 4-amino-6-hydrazino-7-beta-D-ribofuranosyl-7H-pyrrolo[2,3-d]-pyrimidine-5-carboxamide]",phosphorylation of p53 by P-TEFb,P-TEFb (Cdk9/Cyclin T1),decreased in a dose-dependent manner
same,DNA binding of p53 phosphorylated by P-TEFb,p53,inhibited this process in a dose-dependent manner

# From US8207136B2, “Nucleoside compounds and methods of use thereof” (The Board of Trustees of the University of Illinois, priority 2005, dated 2012)
